{
  "source": "patent US11725026B2",
  "about": "“Compositions and methods for inhibiting lactate dehydrogenase a activity” (Research Foundation for SUNY, priority 2019, dated 2023)",
  "key": {"[1]": {"test_system": "renal tumor tissue and adjacent normal kidney-tissue from a BHD patient", "experiment": "Ex vivo peptide treatment of BHD patient renal tumor and adjacent normal tissue", "parameters": "species or system human", "conditions": "FLCN-10-Rhodamine B, 2 h at 37° C., fluorescence microscopy", "procedure": "Tumor tissues from the BHD patient were obtained with written informed consent from the Department of Urology at SUNY (State University of New York) Upstate Medical University. At the time of partial nephrectomy, which was done with <15 min of renal ischemia, BHD tumors were dissected into 3-5 mm^3 pieces and cultured on a presoaked gelatin sponge (Johnson & Johnson) in 24-well plates containing 2 ml RPMI-1640 with 10% FBS, antibiotic/antimycotic solution. Tissues were cultured at 37° C. for 16 hr, followed by the addition of the indicated concentrations of FLCN-10-Rhod-B and further incubation at 37° C. for 2 hr.\nTumor and adjacent normal renal tissue from the BHD patient were obtained with written informed consent on an Institutional Review Board (IRB)-approved protocol from the Department of Urology at SUNY Upstate Medical University. At the time of partial nephrectomy, which was done with <15 min of renal ischemia, BHD tumors were dissected into 3- to 5-mm^3 pieces and cultured on a presoaked gelatin sponge (Johnson & Johnson) in 24-well plates containing 2 ml RPMI-1640 with 10% FBS and antibiotic/antimycotic solution. Tissues were cultured at 37° C. for 16 h, followed by the addition of the indicated concentrations of FLCN-10-Rhod-B and further incubation at 37° C. for 2 h. […]"}, "LDHA [2]": {"target": "T1, LDHA (Homo sapiens, UniProt P00338)", "T1 construct": "a complex of FLCN-10 peptide with full-length recombinant LDHA; 6xHis (leader of vector pRSET-A) (N); made in house; host or cells: E. coli BL21 (DE3)", "experiment": "LDH activity assay (MAK066) with recombinant LDHA", "format": "biochemical", "conditions": "25 ng recombinant LDHA pre-incubated with peptide 30 min on ice", "method": "Lactate dehydrogenase activity was measured according to the manufacturer's protocol (MAK066, Sigma-Aldrich). […] Samples were then transferred to an optically clear 96-well plate and substrate mix was added to each well. Absorbance was measured at 450 nm every five minutes until saturation. […] All experiments were carried out in triplicate.\nLactate dehydrogenase activity was measured according to the manufacturer's protocol (MAK066, Sigma-Aldrich). […] Samples were then transferred to an optically clear 96-well plate and substrate mix was added to each well. Absorbance was measured at 450 nm every five min until saturation."}, "LDHA (pTyr10-LDHA)": {"target": "T2, LDHA (pTyr10-LDHA) (Homo sapiens, UniProt P00338)", "T2 construct": "a panel of cancer cell lines were immunoblotted to observe levels of endogenous FLCN and pTyr10-LDHA; endogenous in cells; host or cells: Caki-1, HEK293, PC3, A549 and other human cancer cell lines", "experiment": "LDHA activity in cells by pTyr10-LDHA immunoblot", "format": "cell-based", "from_the_text": "The supernatant was then transferred to a fresh microtube."}, "ccRCC cell lines": {"test_system": "ccRCC cell lines", "experiment": "Apoptosis / cell death in ccRCC renal cell lines (cleaved PARP/caspase-3 immunoblot, Annexin V/propidium iodide flow cytometry)", "format": "cell-based, human", "conditions": "Caki-1 cells, Western blot, normalized for amount of peptide residing in cells"}, "LDHA [3]": {"target": "T1, LDHA", "experiment": "Fluorescence anisotropy binding of Rhodamine-B-labeled FLCN peptides to recombinant LDHA", "procedure": "LDHA at the indicated concentrations was incubated on ice in 50 mM Tris pH 7.2, 150 mM NaCl, 1 mM TCEP, 4 mM MgCl2 with […] labelled FLCN peptide for 30 min.\nFluorescence anisotropy was measured using a SpectraMax 3 equipped with rhodamine fluorescence polarization module (lex\\lem.535 nm/595 nm). Curve fitting was done in KaleidaGraph 4.0.\nLDHA at the indicated concentrations was incubated on ice in 50 mM Tris pH 7.2, 150 mM NaCl, 1 mM TCEP, 4 mM MgCl2 with […] Rhodamine-B-labeled FLCN peptide for 30 min. Fluorescence anisotropy was measured in triplicate using a SpectraMax i3 equipped with rhodamine fluorescence polarization module (lex\\lem.535 nm/595 nm). Curve fitting was done in KaleidaGraph 4.0."}},
  "note": "Where a SMILES comes first, the peptide text is derived from it. Where no end group is shown, it is not given here.",
  "data": [
    {"molecule": "CSCC[C@H](NC(=O)[C@H](CCCNC(=N)N)NC(=O)[C@H](CCC(N)=O)NC(=O)[C@H](C)N)C(=O)N[C@@H](CC(N)=O)C(=O)N[C@H](C(=O)N[C@@H](C)C(=O)N[C@@H](Cc1ccccc1)C(=O)N[C@H](C(=O)N1CCC[C@H]1C(=O)O)[C@@H](C)O)[C@@H](C)O", "note": "[FLCN-10] (H-AQRMNTAFTP-OH; N-terminus and C-terminus assumed)", "values": [
      {"measurement": "tissue penetration ex vivo", "setting": "[1]", "result": "able to penetrate both normal and tumor tissues"},
      {"measurement": "inhibitory effect on LDHA activity", "setting": "LDHA [2]", "result": 70, "unit": "%"}
    ]},
    {"molecule": "PEGylated FLCN-10: FLCN-10 peptide modified by PEGylation to protect from cellular proteases (AQRMNTAFTP; also: PEGylated, site not given here)", "values": [
      {"measurement": "activity against LDHA in Caki-1 cells", "setting": "LDHA (pTyr10-LDHA)", "result": "effective at inhibiting LDHA activity"},
      {"measurement": "pro-apoptotic activity of modified FLCN-10 peptides", "setting": "ccRCC cell lines", "result": "minimal pro-apoptotic activity"}
    ]},
    {"molecule": "QRMNTAFTPFL [FLCN-1, peptide derived from aa220-230 of FLCN]", "values": [
      {"measurement": "binding to LDHA (in words)", "setting": "LDHA [3]; determined by anisotropy", "result": "bound tightly to LDHA"},
      {"measurement": "Ka of LDHA with FLCN peptide", "setting": "LDHA [3]; fluorescence polarization anisotropy, n=3", "result": "≈ 1×10^7"}
    ]}
  ]
}
